# According to US4159384A, “Phenenyltris (carbonylimino)multi-anionic substituted triphenyl acids and salts” (American Cyanamid Company, priority 1978, dated 1979):
# Counter-ions that a name gives are not always drawn.
# Test system: shunt pathway
# Assay: Test, Code 036 (C-Shunt inhibitor): lysis of fragile human erythrocytes in autologous serum, cobra venom factor
# Assay type: biochemical
# Conditions: in vitro, appropriate dilutions of the test compound
# Description: An active inhibitor protects C2 from C1 and C4; (ii) Test, Code 035 (C3-C9 inhibitor)--This test determines the ability of the late components of human complement (C3-C9) to lyse EAC 142 in the presence of appropriate dilutions of the test compound. An active inhibitor protects EAC 142 from lysis by human C3-C9; (iii) Test, Code 036 (C-Shunt inhibitor)--In this test human erythrocytes rendered fragile are lysed in autologous serum via the shunt pathway activated by cobra venom factor in the presence of appropriate dilutions of the test compound. Inhibition of the shunt pathway results in failure of lysis; (iv) Forssman Vasculitis Test--Here, the well known complement dependent lesion, Forssman vasculitis, is produced in guinea pigs by intradermal injection of rabbit anti-Forssman antiserum. […]
smiles,measurement,value
"O=C(Nc1cc(C(=O)O)c(O)c(S(=O)(=O)O)c1)c1cc(C(=O)Nc2cc(C(=O)O)c(O)c(S(=O)(=O)O)c2)cc(C(=O)Nc2cc(C(=O)O)c(O)c(S(=O)(=O)O)c2)c1 [5,5',5""-[s-Phenenyltris(carbonylimino)]tri-3-sulfo salicylic acid trisodium salt]",Shunt Inhibition 036 Wells,+1 Wells
